Structures are written as SMILES.

The source of these data is BindingDB's records for doi:10.1021/acs.jmedchem.6b00948 (Fimbrion Therapeutics, 2016).

The assay is described as follows: Inhibition of Escherichia coli UTI89 FimH-mediated biofilm formation after 48 hrs by crystal violet staining-based assay.

By IC50 is commonly meant the midpoint of a concentration-inhibition curve. High values mean a need for much substance, low ones inhibition by little substance. `Cc1cc(-c2ccc3cc[nH]c(=O)c3c2)ccc1O[C@H]1O[C@H](CO)[C@@H](O)[C@H](O)[C@@H]1O` returned an IC50 of 130 nM.

In turn, `Cc1cc(-c2cccc3cnccc23)ccc1O[C@H]1O[C@H](CO)[C@@H](O)[C@H](O)[C@@H]1O` came in with an IC50 of 140 nM.

`Cc1cc(-c2ccc3c(c2)C(=O)NCC3)ccc1O[C@H]1O[C@H](CO)[C@@H](O)[C@H](O)[C@@H]1O` returned an IC50 of 250 nM.

As to `CNC(=O)c1cccc(-c2ccc([C@@H](O)[C@H]3O[C@H](CO)[C@@H](O)[C@H](O)[C@@H]3O)cc2)c1`, the half-maximal inhibitory concentration (IC50) was determined as 900 nM.

Regarding `Cc1cc(-c2ccc3ccnc(N)c3c2)ccc1O[C@H]1O[C@H](CO)[C@@H](O)[C@H](O)[C@@H]1O`, inhibition was half-maximal at 340 nM (IC50).

Molecule `CNC(=O)c1cccc(-c2ccc([C@H](O)[C@H]3O[C@H](CO)[C@@H](O)[C@H](O)[C@@H]3O)c(C)c2)c1` showed an IC50 of 11000 nM.

Consider `CNC(=O)c1cccc(-c2ccc([C@@H](O)[C@H]3O[C@H](CO)[C@@H](O)[C@H](O)[C@@H]3O)c(C)c2)c1`, for which half-maximal inhibition (IC50) required 80 nM.

On to `CNC(=O)c1cccc(-c2ccc(O[C@H]3O[C@H](CO)[C@@H](O)[C@H](O)[C@@H]3O)cc2)c1`, for which inhibition was half-maximal at 1350 nM (IC50).

Turning to `Cc1cc(-c2ccc3c(c2)C(=O)NCC3)ccc1[C@@H](O)[C@H]1O[C@H](CO)[C@@H](O)[C@H](O)[C@@H]1O`, inhibition was half-maximal at 40 nM (IC50).

Molecule `Cc1cc(-c2ccc3cc[nH]c(=O)c3c2)ccc1[C@@H](O)[C@H]1O[C@H](CO)[C@@H](O)[C@H](O)[C@@H]1O` returned an IC50 of 30 nM.

`Cc1cc(-c2ccc3ccnc(N)c3c2)ccc1[C@@H](O)[C@H]1O[C@H](CO)[C@@H](O)[C@H](O)[C@@H]1O` returned a 50% inhibitory concentration (IC50) of 40 nM.

On to `Cc1cc(-c2cccc3cnccc23)ccc1[C@@H](O)[C@H]1O[C@H](CO)[C@@H](O)[C@H](O)[C@@H]1O`, for which half-maximal inhibition (IC50) was put at 600 nM.

With `CNC(=O)c1cccc(-c2ccc([C@H](O)[C@H]3O[C@H](CO)[C@@H](O)[C@H](O)[C@@H]3O)cc2)c1`, inhibition was half-maximal at 38000 nM (IC50).

As for `CNC(=O)c1cccc(-c2ccc(O[C@H]3O[C@H](CO)[C@@H](O)[C@H](O)[C@@H]3O)c(C)c2)c1`, the IC50 came to 150 nM.
